Point of comparison: FCc1ccc(-c2ccc(-c3cn([C@H]4CN5CCC4CC5)nn3)s2)cc1, melting point 199 °C. Against it:
- O=C(O)[C@H](Cc1ccc(O)cc1)NS(=O)(=O)c1ccc(N2CCC(c3ccccc3)CC2)cc1 — lower, 108 to 110 °C
- CCCCCCC(=N)NC(=S)Nc1ccc(OC)cc1 — lower, 70 to 72 °C
- CCCn1c2ccccc2c2cc(C(=O)CC(C)=O)ccc21 — lower, 97 °C
- CS(=O)(=O)c1nc2ncc(Cl)cc2s1 — higher, 201 to 202 °C
- O=C1CCC2=C(CCc3cc(F)ccc32)N1Cc1ccccc1 — lower, 101 to 102 °C
- CCOc1c(N)cc(-c2cccc3ccccc23)c2nc(C(=O)O)ccc12 — lower, 182 to 184 °C
- COc1ccc(-c2nc(Sc3ccccc3F)[nH]c2-c2ccc(OC)cc2)cc1 — lower, 195 °C
- CC(=O)N1N=C(c2ccc([N+](=O)[O-])cc2)c2cc(Cl)c(Cl)cc2CC1C (stereo unspecified) — not separable, 198 to 200 °C
- N#Cc1cc(N)ccc1N1CCCC1 — lower, 113 °C
- Clc1nccc(-c2ccc(Cl)c(Cl)c2)n1 — lower, 126 to 127 °C
- Clc1cccc(Nc2ncnc(-c3ccnc(Cl)c3)n2)c1 — lower, 178 to 180 °C
- COc1ccc(F)cc1C(C)(C)CC(=O)C(=O)Nc1ccc2c(=O)onc(C)c2c1 — lower, 171 to 173 °C
- COc1cc(OC)c2c(=O)[nH]c(-c3ccc(OCCNC(C)C)c(-c4cccc(S(C)=O)c4)n3)nc2c1 (stereo unspecified) — lower, 156 to 157 °C
- Cn1cc(CCN2C(=O)c3ccccc3C2=O)c2cc(CC(N)=O)ccc21 — higher, 200 to 202 °C
- O=C(N[C@H]1CCCNC1=O)c1ccc(F)c(F)c1 — higher, 202 to 204 °C
- CCOc1nc2ccccc2nc1NC(=O)N1CCN(c2cc(OC)cc(OC)c2)CC1 — lower, 149 to 150 °C
- OCC(=C(c1ccc(F)cc1)c1ccc(F)cc1)n1nnnc1-c1ccccc1 — lower, 197 to 198 °C
- CCCc1nc2c(N)nc3ccccc3c2n1CCOCCCS(=O)(=O)c1ccccc1 — lower, 160 to 161 °C
- C#CCN1C[C@H](OC(C)=O)CC1=O — lower, 46.5 to 47.5 °C
- COc1ccc(/C=C(\C#N)c2ccc(Cl)cc2)cc1OC1CCCC1 — lower, 129 to 137 °C
- Oc1ccc2c(c1)nnc1ccccc12 — higher, 274 to 277 °C
- Cc1cc(C(=O)CBr)cn1S(=O)(=O)c1ccccc1 — lower, 86 to 88 °C
- COc1ccc(-n2c(=O)[nH]c3cc(Cl)cc(Cl)c3c2=O)cc1 — higher, 294 to 296 °C
- O=C(c1ccccc1F)c1cc(Cl)ccc1CSc1ccccc1 — lower, 81 to 82 °C
- O=S(=O)(NCC1CCC(NCC2CCc3ccccc3C2)CC1)c1ccc2ccccc2c1 (stereo unspecified) — lower, 114 to 115 °C
- COc1cc(C=C2C(=O)NC(=O)N2C)cc(OC)c1O — lower, 194 to 196 °C
- O=C(c1c[nH]c2nc(Cl)ccc12)N1CCN2CCC1CC2 — higher, 228 to 229 °C
- COCCOCCOCCn1c2ccc(C=O)cc2c2cc(C=O)ccc21 — lower, 108 to 109 °C
- Cn1cc(-c2ccccc2)c(=O)c(-c2cccc(C#N)c2)c1 — lower, 164 to 166 °C
- CC(=O)Nc1ccc(OCC2CCCC(OC(CCn3ccnc3)c3ccc(F)cc3)O2)cc1 (stereo unspecified) — lower, 133 to 135 °C
- O=C(O)c1cc(-c2ccccc2S(=O)(=O)Cl)c2ccc3c(-c4ccccc4S(=O)(=O)Cl)cc(C(=O)O)nc3c2n1 — higher, > 300 °C
- Cc1ccc(-c2nc(O)cc(O)n2)cc1 — higher, 314 °C
- OCc1nnc(-c2ccc(-c3ccccc3)cc2)n1-c1ccccc1F — higher, 220 to 223 °C
- COC1CCc2oc3ccc(Br)cc3c(=O)c2C1 (stereo unspecified) — lower, 139 to 142 °C
- CC1=C(c2ccccc2)C(=O)N(C(C)(C)C(=O)c2cc(F)cc(F)c2)CO1 — lower, 157 to 158 °C
- CCNC(C)c1cc(S(N)(=O)=O)sc1S(C)(=O)=O (stereo unspecified) — lower, 164 to 166 °C
- CCCCCCCCCCCC(=O)OC1C(C)C(c2ccccc2)NC(c2ccccc2)C1C (stereo unspecified) — lower, 74 to 76 °C
- O=C(NO)[C@H](CNS(=O)(=O)c1ccc(OCc2ccc(Cl)c(Cl)c2)cc1)N1CCCCC1 — lower, 166 °C
- CC(C)(C)OC(=O)COCCCCCCn1nc(-c2ccccc2)c(-c2ccccc2)c1-c1ccccc1 — lower, 69 to 72 °C
- CC12CCC(O)CC1=CCC1C2C(O)CC2(C)C1CCC21OCCO1 (stereo unspecified) — lower, 123 to 125 °C
- CCOC(=O)c1cn(C2CC2)c2nc(N3CCC(NC)C3)c(F)cc2c1=O (stereo unspecified) — lower, 164 to 166 °C
- Cc1cccc(C(=O)C=C2CCCN2C)c1 — lower, 60 to 62 °C
- C=CCN(CC=C)C(=O)n1cnc(S(=O)(=O)CC)n1 — lower, 39 to 42 °C
- CCCc1c(C(=O)OCC)nc2ccccc2c1OCc1ccccc1 — lower, 127 to 129 °C
- N#Cc1cnc2c(oc3ccccc32)c1Cl — higher, 229 to 231 °C
- COc1nc2cc(Cl)cc(I)c2nc1OC — lower, 94 to 96 °C
- Cc1nc2ccc3c(c2o1)OC(CNC1CCC(c2c[nH]c4ccc(F)cc24)C1)CO3 (stereo unspecified) — lower, 79 to 82 °C
- COc1ccc(Oc2cccc(C(=O)NCCN(O)C(N)=O)c2)cc1 — lower, 160 to 162 °C
- CC(C)(C)c1cc(Cn2nc(CCCCc3nn(Cc4cc(C(C)(C)C)c(O)c(C(C)(C)C)c4)c(=O)o3)oc2=O)cc(C(C)(C)C)c1O — lower, 190 °C
- CC1=C(C(=O)OC(C)C)C(c2cccc(Cl)c2Cl)N(C(=O)OC(C)C)C(=O)N1 (stereo unspecified) — lower, 158 to 160 °C
- COc1cc(O)c(C(=O)C=Cc2ccc(SC)cc2)c(OC)c1 — lower, 135 °C
- CC1=C(C=O)COc2ccccc21 — lower, 68 to 70 °C
- CC(=O)Nc1ccc(C(C)=NNc2ccc(C3=NNC(=O)CC3C)cc2)cc1 (stereo unspecified) — lower, 145 to 155 °C
- O=S(=O)(c1ccccc1)c1ccc(-c2ccccc2)s1 — lower, 115 to 116 °C
- [N-]=[N+]=NC1(c2nc(N)nc(N)n2)C=CC(c2ccccc2)=CC1 (stereo unspecified) — higher, 230 °C
- N#Cc1ccc(-c2ccc(N3CCOCC3)cc2)[nH]c1=O — higher, 272 to 275 °C
- CC(=O)N1N=C(c2ccncc2)OC1c1c(Cl)cccc1Cl (stereo unspecified) — lower, 163 °C
- CNc1ncnc(NCc2c(F)cccc2Cl)c1N — higher, 210 to 213 °C
- CN(CCc1ccccc1)C(=O)Cc1ccc(OCc2ccccc2)c(/C=C/C(=O)O)c1 — lower, 48 to 51 °C
- Cc1nc(C(Cl)(Cl)Cl)nc(OC(=O)N(C)C)c1Cl — lower, 87 to 88 °C
- CC(C)Oc1c(C(=O)O)oc(C(=O)O)c1OC(C)C — lower, 131 to 132 °C
- Cc1ccc2c(c1NC(=O)NCC1(c3ccccc3)CCCC1)OC(C)(C)C2 — lower, 186 °C
- CC(C)OCc1nc(C(C)(C)O)c(C(=O)O)n1Cc1ccc(-c2ccccc2-c2nnn[nH]2)cc1 — lower, 153 to 161 °C
- COc1nc(Nc2ccc(C)cc2[N+](=O)[O-])nc(OC)n1 — lower, 189 to 191 °C
- CN(Cc1cc(C(F)(F)F)cc(C(F)(F)F)c1)C(=O)c1nc(Cl)c2ccccc2c1-c1ccc(F)cc1 — lower, 142 to 143 °C
- COC(=O)c1cccc(-c2cn(C)cc(-c3cccc(C)c3)c2=O)c1 — lower, 180 to 183 °C
- COc1ccc2c(c1OC)CCN(Cc1ccccc1)Cc1cc3c(cc1C=C2)OCO3 — lower, 129 to 132 °C
- CCCn1c(=O)n2c(=O)[nH]nc2c2[nH]cnc21 — higher, > 290 °C
- O=C1Nc2cccnc2Nc2ccc(Br)cc21 — lower, 187 to 188 °C
- COC(=O)C1CSc2sccc2C1=O (stereo unspecified) — lower, 94 to 97 °C
- COc1ccc(CNc2cc3c(Nc4ccc(F)c(C(F)(F)F)c4)ncnc3cn2)cc1 — higher, 202 to 204 °C
- CCOC(=O)c1cn2c3c(ccc(OC)c3c1=O)OCC2C (stereo unspecified) — lower, 165 to 168 °C
- CCOC(=O)C(C#N)=Cc1c(Cl)n(Cc2ccccc2)c2ccccc12 — lower, 130 to 131 °C
- CC(C)(C)OC(=O)N[C@@H](Cc1ccc(O)cc1)C(=O)N[C@H](Cc1ccccc1)C(=O)NCC(=O)OCc1ccccc1 — lower, 169 °C
- COCOCc1nc(-c2ccccc2)oc1C=O — lower, 51 to 52 °C
- N#Cc1cc2c(cc1O)OCC21C(=O)N(Cc2ccccc2C(F)(F)F)c2ccccc21 (stereo unspecified) — lower, 122 to 124 °C
- N#Cc1cccc2c(C3CCCCC3)nccc12 — lower, 94.7 °C
- COc1ccc2nc(C)cc(Oc3cc(-c4ccc(C(F)(F)F)cc4)ncn3)c2c1 — lower, 165 to 166 °C
- Cc1ccc(C2c3c(C)c(N)c(C)c(C)c3OC2(C)C)cc1 (stereo unspecified) — lower, 91 to 92 °C
- N#Cc1ccccc1OCCCN1CCC(NC(=O)Cc2ccccc2)CC1 — lower, 105 to 107 °C
- CCc1c(C(=O)C(C)C)c2ccc(C#N)cc2n1Cc1ccccc1Cl — lower, 132 to 134 °C
- CC(=O)OCC(CCn1cnc2c(Cl)nc(N)nc21)COC(C)=O — lower, 135 to 137 °C
- C=CCN1CCN2c3ccccc3Cn3cccc3C2C1 (stereo unspecified) — lower, 130 to 132 °C
- COc1ccc(-c2nc3c(C(=O)NC4CC5CCCC(C4)N5C)cccc3o2)cc1 (stereo unspecified) — lower, 103 to 105 °C
- Cc1csc2ccc(C3CCN(Cl)CC3)cc12 — lower, 57 to 61.5 °C
- Fc1ccc(Cn2c(NC3CCNCC3)nc3ccccc32)cc1 — higher, 216 °C
- CC(C)Oc1cc(Oc2ccc(S(C)(=O)=O)cn2)cc2cc(C3=NCC(CCO)S3)[nH]c12 (stereo unspecified) — lower, 172 to 173 °C
- CC(C)c1nn(-c2ccc(C(F)(F)F)cc2)cc1CO — lower, 84 to 85 °C
- O=C(O)CCCOc1ccc(OCc2ccccc2)cc1 — lower, 125 to 126 °C
- CCOC(=O)C(=CNc1ccc(F)c(F)c1O)C(=O)OCC — lower, 178 to 180 °C
- Cn1nnc2c1C(=O)C(Cl)=C(Cl)C2=O — higher, 254 to 255 °C
- COC(=O)Cc1cn(Cc2ccc(OCc3ccccc3)cc2)nc1-c1ccc(F)cc1 — lower, 58 to 59 °C
- CCOC(=O)Cc1cccc(C(=O)c2ccc(Cl)cc2)c1N — lower, 101 to 102 °C
- Cn1c(=O)cc(C(F)(F)F)[nH]c1=O — higher, 235 to 237 °C
- COC(=O)c1cc(F)c(O)nc1Nc1ccc(F)cc1F — higher, 222 to 223 °C
- COc1cc(N2CCOCC2)ccc1Nc1ncc2cc3ccccc3n2n1 — lower, 169 to 173 °C
- O=C(NC(Cc1ccc(OCC2CC2)cc1)C(=O)O)c1cn2cc(-c3ccc(Cl)cc3)ccc2n1 (stereo unspecified) — higher, 276 °C
- CCOc1nn(CCOc2nn(CC)cc2CC(=O)O)cc1C(=O)NCc1ccc(Cl)cc1Cl — lower, 157 to 158 °C
- NC(=O)CC(C(N)=O)(c1ccc(F)cc1)c1ccc(F)cc1 — lower, 192 to 193 °C
- CCCCCCOc1cc(-c2cccc(N)c2)c(OCCCCCC)cc1-c1cccc(N)c1 — lower, 105 to 106 °C
